# According to article PMC12686126, “LL‐37 Inhibits TMPRSS2‐Mediated S2' Site Cleavage and SARS‐CoV‐2 Infection but Not Omicron Variants” (Cell Proliferation, 2025):
# Key:
# [1] = system: spike with N764K mutation; assay type: cell-based, SARS‐CoV‐2
# [2] = system: spike with N764K mutation; assay type: cell-based, SARS‐CoV‐2; remark: listed apart in the source
# SARS‐CoV‐2 spike = assay type: cell-based
# [3] = system: S2 subunit with N969K mutation; assay type: binding, SARS‐CoV‐2
# [4] = system: SARS‐CoV‐2 spike S2 subunit; assay type: cell-based
# [5] = system: SARS‐CoV‐2 spike pseudovirus; assay type: cell-based
# [6] = system: spike with D796Y mutation; assay type: cell-based, SARS‐CoV‐2
# [7] = system: SARS‐CoV‐2^N764K spike pseudovirus; assay type: cell-based
# [8] = system: S2 subunit with D796Y mutation; assay type: binding, SARS‐CoV‐2
# [9] = system: spike with N969K mutation; assay type: cell-based, SARS‐CoV‐2
sequence,measurement,setting,value
LLGDFFRKSKEKIGKEFKRIVQRIKDFLRNLVPRTES [LL‐37],cell–cell fusion activity after LL‐37 pretreatment,[1],not the spike‐expressing cells with N764K mutation
same,generation of S2' fragment,[2],did not significantly reduce
same,cell–cell fusion activity after LL‐37 pretreatment,SARS‐CoV‐2 spike,significantly lower cell–cell fusion activity
same,binding of S2 subunit to immobilised LL‐37,[3],no difference or even enhanced binding
same,effect on polybasic cleavage site (S1/S2 boundary),[4],excluded the effect of LL‐37 on the polybasic cleavage site
same,inhibition of RLU only caused by overexpression of TMPRSS2,[5],about 70%
same,inhibition of pseudovirus entry into 293T‐A2T2 cells,[5],52%
same,cell–cell fusion activity after LL‐37 pretreatment,[6],significantly lower cell–cell fusion activity
same,reduction of RLU induced by SARS‐CoV‐2^N764K,[7],did not significantly reduce
same,binding of S2 subunit to immobilised LL‐37,[8],no difference or even enhanced binding
same,cell–cell fusion activity after LL‐37 pretreatment,[9],significantly lower cell–cell fusion activity
